ChEMBL document CHEMBL6153165, “Clozapine as an E3 Ligand for PROTAC Technology” (ACS Med Chem Lett, 2025)
The source made the active and inactive calls. No cut-off for these calls is given here.

Legend:
HEK293 [1] = test: (§1) PROTAC activity at E3-ubiquitin ligase/Halo-tagged Brazilian click beetle Emerald luciferase expressed in human HEK293 cells assessed as decrease in Halo-ELuc protein level by measuring Halo-Eluc to beta-actin ratio at 0.01 uM incubated for 24 hrs by luciferase based Western blotting analysis (reference value: 100%); type: cell-based; parameters: scale not given: the % may be the effect or the level left
HEK293 [2] = test: as §1, with “0.1” for “0.01”; type: cell-based; parameters: scale not given: the % may be the effect or the level left
HEK293 [3] = test: as §1, with “1” for “0.01”; type: cell-based; parameters: scale not given: the % may be the effect or the level left
HEK293 [4] = test: as §1, with “10” for “0.01”; type: cell-based; parameters: scale not given: the % may be the effect or the level left
HEK293 [5] = test: as §1, with “20” for “0.01”; type: cell-based; parameters: scale not given: the % may be the effect or the level left
HEK293 [6] = test: PROTAC activity at E3-ubiquitin ligase/Halo-tagged Brazilian click beetle Emerald luciferase expressed in human HEK293 cells assessed as decrease in Halo-ELuc protein level pretreated with 1-chlorohexane for 2 hrs followed by compound addition and measured after 24 hrs by competitive assay; type: cell-based
HEK293 [7] = test: PROTAC activity at E3-ubiquitin ligase/Halo-tagged Brazilian click beetle Emerald luciferase expressed in human HEK293 cells assessed as decrease in Halo-ELuc protein level pretreated with compound followed by 1-chlorohexane addition and measured after 24 hrs by competitive assay; type: cell-based
MCF7 [8] = test: Induction of ER-alpha degradation (unknown origin) at 30 uM by measuring ER-alpha to beta actin ratio incubated for 24 hrs Western blotting analysis (reference value: 100%); type: cell-based; conditions: Homo sapiens
MCF7 [9] = test: PROTAC activity at E3-ubiquitin ligase/ER-alpha expressed in human MCF7 cells assessed as decrease in ER-alpha protein level by measuring […] at 0.03 uM incubated for 24 hrs by Western blotting analysis (reference value: 100%); type: cell-based; parameters: scale not given: the % may be the effect or the level left
MCF7 [10] = test: PROTAC activity at E3-ubiquitin ligase/ER-alpha expressed in human MCF7 cells assessed as decrease in ER-alpha protein level by measuring […] at 0.1 uM incubated for 24 hrs by Western blotting analysis (reference value: 100%); type: cell-based; parameters: scale not given: the % may be the effect or the level left
MCF7 [11] = test: PROTAC activity at E3-ubiquitin ligase/ER-alpha expressed in human MCF7 cells assessed as decrease in ER-alpha protein level by measuring […] at 0.3 uM incubated for 24 hrs by Western blotting analysis (reference value: 100%); type: cell-based; parameters: scale not given: the % may be the effect or the level left
MCF7 [12] = test: PROTAC activity at E3-ubiquitin ligase/ER-alpha expressed in human MCF7 cells assessed as decrease in ER-alpha protein level by measuring […] at 1 uM incubated for 24 hrs by Western blotting analysis (reference value: 100%); type: cell-based; parameters: scale not given: the % may be the effect or the level left
MCF7 [13] = test: PROTAC activity at E3-ubiquitin ligase/ER-alpha expressed in human MCF7 cells assessed as decrease in ER-alpha protein level by measuring […] at 3 uM incubated for 24 hrs by Western blotting analysis(reference value: 100%); type: cell-based; parameters: scale not given: the % may be the effect or the level left
MCF7 [14] = test: PROTAC activity at E3-ubiquitin ligase/ER-alpha expressed in human MCF7 cells assessed as decrease in ER-alpha protein level by measuring […] at 10 uM incubated for 24 hrs by Western blotting analysis (reference value: 100%); type: cell-based; parameters: scale not given: the % may be the effect or the level left
MCF7 [15] = test: PROTAC activity at E3-ubiquitin ligase/ER-alpha expressed in human MCF7 cells assessed as decrease in ER-alpha protein level by measuring […] at 30 uM incubated for 24 hrs by Western blotting analysis (reference value: 100%); type: cell-based; parameters: scale not given: the % may be the effect or the level left
MCF7 [16] = test: PROTAC activity at E3-ubiquitin ligase/ER-alpha expressed in human MCF7 cells assessed as decrease in ER-alpha protein level by measuring […] at 100 uM incubated for 24 hrs by Western blotting analysis (reference value: 100%); type: cell-based; parameters: scale not given: the % may be the effect or the level left
MCF7 [17] = test: PROTAC activity at E3-ubiquitin ligase/ER-alpha expressed in human MCF7 cells assessed as induction of ER-alpha degradation incubated for 24 hrs in presence of MG132 by measuring ER-alpha to beta actin ratio at 30 uM by Western blotting analysis (reference value: 100%); type: cell-based
MCF7 [18] = test: PROTAC activity at E3-ubiquitin ligase/ER-alpha expressed in human MCF7 cells assessed as induction of ER-alpha degradation incubated for 24 hrs in presence of MG132 by measuring ER-alpha to beta actin ratio at 100 uM by Western blotting analysis (reference value: 100%); type: cell-based
MCF7 [19] = test: PROTAC activity at E3-ubiquitin ligase/ER-alpha expressed in human MCF7 cells assessed as induction of ER-alpha degradation incubated for 24 hrs in presence of MLN7243 by measuring ER-alpha to beta actin ratio at 30 uM by Western blotting analysis (reference value: 100%); type: cell-based
MCF7 [20] = test: PROTAC activity at E3-ubiquitin ligase/ER-alpha expressed in human MCF7 cells assessed as induction of ER-alpha degradation incubated for 24 hrs in presence of MLN7243 by measuring ER-alpha to beta actin ratio at 100 uM by Western blotting analysis (reference value: 100%); type: cell-based
MCF7 [21] = test: PROTAC activity at E3-ubiquitin ligase/ER-alpha expressed in UBR1 knockdown human MCF7 cells assessed as induction of ER-alpha degradation by measuring ER-alpha to beta actin ratio at 30 uM incubated for 24 hrs by Western blotting analysis (reference value: 100%); type: cell-based
MCF7 [22] = test: PROTAC activity at E3-ubiquitin ligase/ER-alpha expressed in UBR1 knockdown human MCF7 cells assessed as induction of ER-alpha degradation by measuring ER-alpha to beta actin ratio at 100 uM incubated for 24 hrs by Western blotting analysis (reference value: 100%); type: cell-based
MCF7 [23] = test: PROTAC activity at E3-ubiquitin ligase/ER-alpha expressed in UBR2 knockdown human MCF7 cells assessed as induction of ER-alpha degradation by measuring ER-alpha to beta actin ratio at 30 uM incubated for 24 hrs by Western blotting analysis (reference value: 100%); type: cell-based
MCF7 [24] = test: PROTAC activity at E3-ubiquitin ligase/ER-alpha expressed in UBR2 knockdown human MCF7 cells assessed as induction of ER-alpha degradation by measuring ER-alpha to beta actin ratio at 100 uM incubated for 24 hrs by Western blotting analysis (reference value: 100%); type: cell-based
MCF7 [25] = test: PROTAC activity at E3-ubiquitin ligase/ER-alpha expressed in UBR4 knockdown human MCF7 cells assessed as induction of ER-alpha degradation by measuring ER-alpha to beta actin ratio at 30 uM incubated for 24 hrs by Western blotting analysis (reference value: 16%); type: cell-based
MCF7 [26] = test: PROTAC activity at E3-ubiquitin ligase/ER-alpha expressed in UBR4 knockdown human MCF7 cells assessed as induction of ER-alpha degradation by measuring ER-alpha to beta actin ratio at 100 uM incubated for 24 hrs by Western blotting analysis (reference value: 41%); type: cell-based
MCF7 [27] = test: PROTAC activity at E3-ubiquitin ligase/ER-alpha expressed in UBR5 knockdown human MCF7 cells assessed as induction of ER-alpha degradation by measuring ER-alpha to beta actin ratio at 30 uM incubated for 24 hrs by Western blotting analysis (reference value: 16%); type: cell-based
MCF7 [28] = test: PROTAC activity at E3-ubiquitin ligase/ER-alpha expressed in UBR5 knockdown human MCF7 cells assessed as induction of ER-alpha degradation by measuring ER-alpha to beta actin ratio at 100 uM incubated for 24 hrs by Western blotting analysis (reference value: 41%); type: cell-based
MCF7 [29] = test: PROTAC activity at E3-ubiquitin ligase/ER-alpha expressed in human MCF7 cells assessed as decrease in ER-alpha protein level by measuring ER-alpha to beta actin ratio at 30 uM incubated for 24 hrs Western blotting analysis (reference value: 100%); type: cell-based; parameters: scale not given: the % may be the effect or the level left
MCF7 [30] = test: Antiproliferative activity against human MCF7 cells assessed as inhibition of cell viability; type: functional, cell-based; conditions: dose 1-100 µM
MCF7 [31] = test: PROTAC activity at E3-ubiquitin ligase/ER-alpha expressed in human MCF7 cells assessed as induction of ER-alpha degradation incubated for 24 hrs by measuring ER-alpha to beta actin ratio at 30 uM by Western blotting analysis (reference value: 100%); type: cell-based
MCF7 [32] = test: PROTAC activity at E3-ubiquitin ligase/ER-alpha expressed in human MCF7 cells assessed as induction of ER-alpha degradation incubated for 24 hrs by measuring ER-alpha to beta actin ratio at 100 uM by Western blotting analysis (reference value: 100%); type: cell-based
MCF7 [33] = test: PROTAC activity at E3-ubiquitin ligase/ER-alpha expressed in human MCF7 cells assessed as induction of ER-alpha degradation by measuring ER-alpha to beta actin ratio at 30 uM incubated for 24 hrs by Western blotting analysis (reference value: 100%); type: cell-based
MCF7 [34] = test: PROTAC activity at E3-ubiquitin ligase/ER-alpha expressed in human MCF7 cells assessed as induction of ER-alpha degradation by measuring ER-alpha to beta actin ratio at 100 uM incubated for 24 hrs by Western blotting analysis (reference value: 100%); type: cell-based
MCF7 [35] = test: Induction of ER-alpha degradation (unknown origin) at 30 uM in presence of 4-OHT by measuring ER-alpha to beta actin ratio incubated for 24 hrs Western blotting analysis (reference value: 100%); type: cell-based; conditions: Homo sapiens

**Q.** What does the source list for `ClCCCCCCOCCOCCN1CCN(C2=Nc3cc(Cl)ccc3Nc3ccccc32)CC1`?
**A.** Activity (HEK293 [1]): 103%; Activity (HEK293 [2]): 97%; Activity (HEK293 [3]): 57%; Activity (HEK293 [4]): 32%; Activity (HEK293 [5]): 22%; Activity (HEK293 [6]): inactive; Activity (HEK293 [7]): Not active; Complete Recovery Of Luminescence Not Observed

**Q.** Which Activity (MCF7 [8]) does the source give for `CC/C(=C(\c1ccc(O)cc1)c1ccc(OCCN(C)C)cc1)c1ccccc1` here?
**A.** 116%

**Q.** Which Activity (MCF7 [9]) does the source give for `CC/C(=C(/c1ccc(O)cc1)c1ccc(OCCN(C)C(=O)CCC(=O)NCCOCCOCCOCCN2CCN(C3=Nc4cc(Cl)ccc4Nc4ccccc43)CC2)cc1)c1ccccc1` here?
**A.** 122%

**Q.** What about the Activity (MCF7 [10]) of the same compound?
**A.** 132%

**Q.** And the Activity (MCF7 [11])?
**A.** 148%

**Q.** What about the Activity (MCF7 [12]) of the same compound?
**A.** 160%

**Q.** And the Activity (MCF7 [13])?
**A.** 160%

**Q.** What about the Activity (MCF7 [14]) of the same compound?
**A.** 116%

**Q.** And the Activity (MCF7 [15])?
**A.** 42%

**Q.** And the Activity (MCF7 [16])?
**A.** 33%

**Q.** What about the Activity (MCF7 [17]) of the same compound?
**A.** 163%

**Q.** What about the Activity (MCF7 [18]) of the same compound?
**A.** 152%

**Q.** What about the Activity (MCF7 [19]) of the same compound?
**A.** 121%

**Q.** And the Activity (MCF7 [20])?
**A.** 104%

**Q.** What about the Activity (MCF7 [21]) of the same compound?
**A.** 14%

**Q.** What about the Activity (MCF7 [22]) of the same compound?
**A.** 28%

**Q.** What about the Activity (MCF7 [23]) of the same compound?
**A.** 27%

**Q.** And the Activity (MCF7 [24])?
**A.** 40%

**Q.** What about the Activity (MCF7 [25]) of the same compound?
**A.** 1%

**Q.** What about the Activity (MCF7 [26]) of the same compound?
**A.** 21%

**Q.** And the Activity (MCF7 [27])?
**A.** 45%

**Q.** What about the Activity (MCF7 [28]) of the same compound?
**A.** 51%

**Q.** And the Activity (MCF7 [29])?
**A.** 37%

**Q.** And the Activity (MCF7 [30])?
**A.** Dose-dependent-effect

**Q.** And the Activity (MCF7 [31])?
**A.** 51%

**Q.** What about the Activity (MCF7 [32]) of the same compound?
**A.** 27%

**Q.** What about the Activity (MCF7 [33]) of the same compound?
**A.** 16%

**Q.** And the Activity (MCF7 [34])?
**A.** 41%

**Q.** What does the source list for `CN1CCN(C2=Nc3cc(Cl)ccc3Nc3ccccc32)CC1`?
**A.** Activity (MCF7 [8]): 104%; Activity (MCF7 [35]): 91%
